Experiments:
MK2 = target: T1, MK2 (Homo sapiens, UniProt P49137); experiment: MK2 radiometric kinase assay; format: biochemical
T1 construct: purchased Millipore (IC50 Profiler Express / KinaseProfiler service)
Excerpt: A commercial radiometric assay service was used to test the specificity and potency of MMI-0100 ([…]; SEQ ID NO: 1) by measuring its half maximal inhibitory concentrations (IC50). This quantitative assay measures how much MK2 inhibitor (MMI-0100; […] (SEQ ID NO: 1)) is needed to inhibit 50% of a given biological process or component of a process (i.e., an enzyme, cell, or cell receptor). Specifically, in these assays, a positively charged substrate is phosphorylated with a radiolabeled phosphate group from an ATP if the kinase is not inhibited by an inhibitor peptide. The positively charged substrate then is attracted to a negatively charged filter membrane, quantified with a scintillation counter, and compared to a 100% activity control. ATP concentrations within 15 μM of the apparent Km for ATP were chosen since an ATP concentration near the Km may allow for the kinases to have the same relative amount of phosphorylation activity. […]
For the MK2 radiometric assay, 5-10 mU of MK2 was incubated with 50 mM Na b-glycerophosphate pH 7.5, 0.1 mM EGTA, 30 μM KKLNRTLSVA (SEQ ID NO: 34; a substrate peptide for MK2), 10 mM MgAcetate, and 10 μM of [y-^33P-ATP] in a final reaction volume of 25 μl. […] The washed P30 filtermat was dried and its radioactivity was measured by scintillation counter.
IC50 values for inhibitor peptides were determined using Millipore's IC50 Profiler Express service. […]

[1] = system: mouse lung endothelial cells (MLEC); experiment: NO analysis (nitrite chemiluminescence); format: cell-based; conditions: physiological doses; 24 hours
Experimental: To measure nitric oxide (NO) production, conditioned medium from mouse lung endothelial cells (MLEC) was examined at 24 hours after treatment with MMI-0100 ([…]; SEQ ID NO: 1). The medium was processed for the measurement of nitrite (NO2) by a NO-specific chemiluminescence analyzer (Sievers) as previously described (Muto, A. et al., J. Exp. Med., 2011, 208(3): 561-575, incorporated herein by reference in its entirety.).

[2] = system: human smooth muscle cell (SMC; HASMC); experiment: MTS cell proliferation assay, human smooth muscle cells; format: cell-based
Experimental: (§1) The CellTiter 96® AQueous Non-Radioactive Cell Proliferation Assay (Promega) was used to assess drug effects on cell proliferation according to the manufacturer's instructions. Briefly, HAECs and HASMCs from early passages were grown to 80-90% confluence in 25 cm^2 tissue culture flasks in a 37° C./5% CO2 incubator prior to harvest. 200 μl of each type of cell suspension (at 20,000 cells/cm^2) was seeded onto separate 96-well plates to yield an approximate 60% confluence per well. Cells were allowed to adhere to the plate surface overnight, followed by addition of 20 ng/ml of TNF-α to stimulate production of inflammatory agents. After a 4-6 hour incubation period, MMI-0100 peptide drug ([…]; SEQ ID NO: 1) was added and cells incubated for another 20-24 hours. Each well was then supplemented with 100 μl of fresh medium and 200 μl of CellTiter 96® AQueous One Solution Reagent and incubated for an additional 1.5-2 hours prior to measuring absorbance of each well at 490 nm with a SoftMax®-equipped plate reader.
(§2) In order to determine the effect of pharmacological doses of MMI-0100 ([…]; SEQ ID NO: 1) on human endothelial cell (EC) and smooth muscle cell (SMC) proliferation, human EC and SMC cultures were treated with three concentrations (0.25 mM, 0.5 mM, and 1 mM) of MMI-0100 ([…] (SEQ ID NO: 1)) following pre-treatment with TNF-α.

[3] = system: human endothelial cell (EC; HAEC); experiment: MTS cell proliferation assay, human endothelial cells; format: cell-based
Experimental: as §1, §2

T1 sequence (P49137 whole entry, species assumed): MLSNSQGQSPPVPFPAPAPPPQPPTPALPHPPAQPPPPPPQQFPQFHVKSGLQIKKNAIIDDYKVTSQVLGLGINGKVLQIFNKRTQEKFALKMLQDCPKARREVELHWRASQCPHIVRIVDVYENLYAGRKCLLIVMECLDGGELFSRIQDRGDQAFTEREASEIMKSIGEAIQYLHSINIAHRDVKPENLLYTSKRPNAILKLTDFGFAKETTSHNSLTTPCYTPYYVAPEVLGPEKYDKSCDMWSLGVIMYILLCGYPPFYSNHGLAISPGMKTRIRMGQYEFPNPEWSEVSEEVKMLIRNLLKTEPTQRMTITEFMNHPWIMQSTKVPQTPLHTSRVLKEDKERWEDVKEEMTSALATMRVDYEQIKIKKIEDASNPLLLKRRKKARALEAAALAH

Sequence: YARAAARQARAKALARQLGVAA [MMI-0100]
- Percent Activity, MK2 (MK2; MMI-0100 100 μM, remaining kinase activity): <5%
- inhibition of MK2 activity (MK2; concentration used for specificity profiling (Table 2, 100 μM)): > 95%
- Nitric oxide (NO) production [1]: not suppressed, and was even enhanced
- SMC proliferation compared to control (20 ng/ml TNF-α alone) ([2]; 0.25 mM MMI-0100): slightly increased
- increase in SMC proliferation compared to control (20 ng/ml TNF-α alone) ([2]; 0.5 mM MMI-0100): 12%
- increase in SMC proliferation compared to control (20 ng/ml TNF-α alone) ([2]; 1 mM MMI-0100): 7%
- SMC morphology, phase contrast images ([2]; 24 hours treatment): no obvious morphological changes
- EC proliferation compared to control (20 ng/ml TNF-α alone) ([3]; 0.25 mM MMI-0100): slightly increased
- increase in EC proliferation compared to control (20 ng/ml TNF-α alone) ([3]; 0.5 mM MMI-0100): 30%
- increase in EC proliferation compared to control (20 ng/ml TNF-α alone) ([3]; 1 mM MMI-0100): 11%
- EC morphology, phase contrast images ([3]; 24 hours treatment): no obvious morphological changes
